Laboratory results as given in the NIST ThermoML archive (doi:10.1016/j.jct.2014.09.005).

Key:
[1] = refractive index (Na D-line) (dimensionless); xn = mol fraction of the nth substance listed; conditions: 101 kPa, Liquid, Standard Abbe refractometry
[2] = xn = mol fraction of the nth substance listed; conditions: 101 kPa, Liquid; for viscosity: Capillary tube (Ostwald / Ubbelohde) method; for mass density: Vibrating tube method

NC1CCCCC1 [cyclohexylamine] + CCCCCCCCCCO
Conditions	mass density, [2] [kg/m3]	refractive index, [1]	viscosity, [2] [mPa·s]
293.15 K, x2 = 0.0957	–	1.4563	–
293.15 K, x2 = 0.153	860.33	1.45514	3.133
293.15 K, x2 = 0.1955	–	1.45413	–
293.15 K, x2 = 0.1956	858.62	–	3.48
293.15 K, x2 = 0.2939	855.14	1.45191	4.452
293.15 K, x2 = 0.3417	853.45	1.45101	5.014
293.15 K, x2 = 0.4077	851.25	1.44965	5.81
293.15 K, x2 = 0.4581	849.54	1.44855	6.48
293.15 K, x2 = 0.5059	847.91	1.44765	7.159
293.15 K, x2 = 0.5401	846.76	–	7.628
293.15 K, x2 = 0.6042	844.53	1.44562	8.558
293.15 K, x2 = 0.6538	842.75	1.44463	9.276
293.15 K, x2 = 0.7021	840.98	1.44358	9.963
293.15 K, x2 = 0.8084	837.02	1.44133	11.52
293.15 K, x2 = 0.8868	834.1	1.43957	12.69
298.15 K, x2 = 0.0957	–	1.45392	–
298.15 K, x2 = 0.153	856.19	1.45279	2.749
298.15 K, x2 = 0.1955	–	1.45174	–
298.15 K, x2 = 0.1956	854.54	–	3.049
298.15 K, x2 = 0.2939	851.2	1.44964	3.853
298.15 K, x2 = 0.3417	849.56	1.44874	4.308
298.15 K, x2 = 0.4077	847.42	1.44743	4.923
298.15 K, x2 = 0.4581	845.76	1.44648	5.456
298.15 K, x2 = 0.5059	844.17	1.44554	5.991
298.15 K, x2 = 0.5401	843.04	1.44481	6.38
298.15 K, x2 = 0.6042	840.86	1.44365	7.124
298.15 K, x2 = 0.6538	839.13	1.44254	7.689
298.15 K, x2 = 0.7021	837.39	1.44141	8.24
298.15 K, x2 = 0.8084	833.53	1.43935	9.512
298.15 K, x2 = 0.8868	830.66	1.43762	10.41
303.15 K, x2 = 0.0957	–	1.4514	–
303.15 K, x2 = 0.153	851.99	1.45031	2.406
303.15 K, x2 = 0.1955	–	1.44938	–
303.15 K, x2 = 0.1956	850.41	–	2.663
303.15 K, x2 = 0.2939	847.19	1.44747	3.347
303.15 K, x2 = 0.3417	845.61	1.44642	3.711
303.15 K, x2 = 0.4077	843.53	1.44514	4.216
303.15 K, x2 = 0.4581	841.91	1.44424	4.654
303.15 K, x2 = 0.5059	840.37	1.44335	5.075
303.15 K, x2 = 0.5401	839.27	1.44256	5.393
303.15 K, x2 = 0.6042	837.14	1.44137	5.985
303.15 K, x2 = 0.6538	835.46	1.44039	6.457
303.15 K, x2 = 0.7021	833.76	1.43943	6.893
303.15 K, x2 = 0.8084	829.98	1.43724	7.904
303.15 K, x2 = 0.8868	827.17	1.43565	8.649

NC1CCCCC1 [cyclohexylamine] + CCCCCCCO
Conditions	mass density, [2] [kg/m3]	refractive index, [1]	viscosity, [2] [mPa·s]
293.15 K, x2 = 0.1018	863.57	–	2.454
293.15 K, x2 = 0.1499	861.92	1.45459	2.635
293.15 K, x2 = 0.1996	860.22	1.45301	2.838
293.15 K, x2 = 0.2982	856.82	1.44986	3.308
293.15 K, x2 = 0.3979	853.09	1.44669	3.844
293.15 K, x2 = 0.4004	–	1.44661	–
293.15 K, x2 = 0.4465	851.2	1.44519	4.118
293.15 K, x2 = 0.4931	849.3	1.44365	4.381
293.15 K, x2 = 0.5432	847.06	1.44192	4.66
293.15 K, x2 = 0.6008	844.43	1.43985	4.98
293.15 K, x2 = 0.6598	841.57	1.43777	5.267
293.15 K, x2 = 0.6969	–	1.4364	–
293.15 K, x2 = 0.7019	839.35	–	5.475
293.15 K, x2 = 0.7479	836.94	1.43438	5.687
293.15 K, x2 = 0.7967	834.16	1.43236	5.916
293.15 K, x2 = 0.8466	831.39	1.4305	6.158
293.15 K, x2 = 0.8935	828.7	1.42866	6.421
293.15 K, x2 = 0.9432	825.75	1.42665	6.717
298.15 K, x2 = 0.1018	859.27	1.45356	2.178
298.15 K, x2 = 0.1499	857.64	1.45216	2.338
298.15 K, x2 = 0.1996	856.01	1.45053	2.502
298.15 K, x2 = 0.2982	852.71	1.44763	2.892
298.15 K, x2 = 0.3979	849.06	–	3.334
298.15 K, x2 = 0.4004	–	1.44444	–
298.15 K, x2 = 0.4465	–	1.44298	–
298.15 K, x2 = 0.4565	847.21	–	3.558
298.15 K, x2 = 0.4931	845.34	1.44143	3.776
298.15 K, x2 = 0.5432	843.14	1.43977	4.007
298.15 K, x2 = 0.5946	–	1.43797	–
298.15 K, x2 = 0.6008	840.57	–	4.267
298.15 K, x2 = 0.6598	837.76	1.43561	4.478
298.15 K, x2 = 0.7019	835.59	1.43404	4.682
298.15 K, x2 = 0.7479	833.22	1.43244	4.828
298.15 K, x2 = 0.7967	830.49	1.43053	5.057
298.15 K, x2 = 0.8466	827.78	1.42852	5.232
298.15 K, x2 = 0.8935	825.11	1.42666	5.43
298.15 K, x2 = 0.9432	822.21	1.42476	5.673
303.15 K, x2 = 0.1018	854.9	1.45099	1.931
303.15 K, x2 = 0.1499	853.33	1.44958	2.059
303.15 K, x2 = 0.1996	851.74	1.44805	2.204
303.15 K, x2 = 0.2982	848.55	1.4452	2.531
303.15 K, x2 = 0.3979	845	1.44224	2.895
303.15 K, x2 = 0.4465	843.2	1.44068	3.079
303.15 K, x2 = 0.4931	841.35	1.43923	3.258
303.15 K, x2 = 0.5432	839.17	1.43752	3.443
303.15 K, x2 = 0.5946	–	1.43575	–
303.15 K, x2 = 0.6008	836.68	1.43554	3.658
303.15 K, x2 = 0.6598	833.93	1.43355	3.694
303.15 K, x2 = 0.7019	831.8	1.432	4.005
303.15 K, x2 = 0.7479	829.48	1.43042	3.974
303.15 K, x2 = 0.7967	826.8	1.42836	4.317
303.15 K, x2 = 0.8466	824.12	1.42657	4.283
303.15 K, x2 = 0.8935	821.5	1.42455	4.444
303.15 K, x2 = 0.9432	818.64	1.42262	4.626
